Reference: patent US9284321B2, “Piperazino[1,2-a]indol-1-ones and [1,4]diazepino[1,2-a]indol-1-one” (Hoffmann-La Roche Inc., priority 2012, dated 2016)

How the values were obtained:
[1] = tested on: human embryonic stem cell derived neural stem cells (NSCs); experiment: Neural Stem Cell Proliferation Assay (neurogenesis assay, ATP levels by CellTiterGlo); assay type: cell-based; details: 96 h, compound concentration at which 150% activity of control (100%) is reached, NSC proliferation by ATP level after 4 days incubation, dose response 8 μM to 8 nM
Experimental: Neurogenic properties of small molecules are determined based on the proliferation of human embryonic stem cell derived neural stem cells (NSCs) which were derived via a dual smad inhibition as previously described (Chambers, S. M., et al., Highly efficient neural conversion of human ES and iPS cells by dual inhibition of SMAD signaling, Nature biotechnology, 2009. 27(3): p. 275-80.)
Compounds respond is measured by the increase in cells based on ATP levels
(Promega:CellTiterGlo®) after an incubation period of 4 days.
NSCs are thawed and expanded over 3 passages. On the 14th day, NSCs are seeded in Polyornithin/Laminin coated 384 well plates at a cell density of 21′000 cells/cm^2 in a media volume of 38 μl.
4 hours after cell seeding, compound solutions are added at a volume of 2 μl. Stock solutions of the compounds (water, 5% DMSO) are diluted to obtain a dose response (11 points, dilution factor is 2), ranging from 8 μM to 8 nM. Controls are run to consistently determine the neurogenic properties of the cells:
Negative (neutral) control is cell culture Media (final DMSO concentration: 0.25%).
• 1. cell culture Media+100 ng/ml FGF2 (final DMSO concentration: 0.1%) • 2. cell culture Media+20 ng/ml EGF (final DMSO concentration: 0.1%) • 3. cell culture Media+100 ng/ml Wnt3a (final DMSO concentration: 0.1%)
After 4 days incubation at 37° C., 5% CO2, the amount of ATP per well is quantified. The ATP concentration is proportional to the cell number. ATP is quantified by using the Promega CellTiterGlo® kit. The CellTiterGlo® reagents contain a cell lysis buffer, a thermo stable luciferase (UltraGlo™ recombinant luciferase), magnesium and luciferin. Luciferin reacts with ATP producing oxyluciferin, AMP and light. The luminescence signal is proportional to the ATP content.
The value of negative (neutral) control is determined for each assay plate by taking the average of 16 negative control wells. The neurogenic compound response is calculated for each compound as (compound/Negative Control)*100.
The values of EC150 from the dose response curve are determined for each test compound. The EC150 is the compound concentration at which 150% activity of control (100%) is reached.

SMILES	EC (150% of control) [1]	melting point
CC1CCNC(=O)c2cc3cc(F)cc(-c4ccccc4)c3n21 (racemic) [Example 26, (RS)-9-Fluoro-5-methyl-7-phenyl-2,3,4,5-tetrahydro-[1,4]diazepino[1,2-a]indol-1-one]	0.24 µM	232.5 °C
CC1CCNC(=O)c2cc3cc(F)cc(-c4ccc(F)cc4)c3n21 (racemic) [Example 27, (RS)-9-Fluoro-7-(4-fluoro-phenyl)-5-methyl-2,3,4,5-tetrahydro-[1,4]diazepino[1,2-a]indol-1-one]	0.18 µM	235.5 °C
C[C@@H]1CNC(=O)c2cc3cccc(-c4ccccc4)c3n21 [Example 1, (R)-4-Methyl-6-phenyl-3,4-dihydro-2H-pyrazino[1,2-a]indol-1-one]	3.97 µM	239 °C
COc1ccc(-c2cccc3cc4n(c23)[C@H](C)CNC4=O)cc1 [Example 2, (R)-6-(4-Methoxy-phenyl)-4-methyl-3,4-dihydro-2H-pyrazino[1,2-a]indol-1-one]	0.85 µM	247 °C
C[C@@H]1CNC(=O)c2cc3cccc(-c4ccncc4)c3n21 [Example 3, (R)-4-Methyl-6-pyridin-4-yl-3,4-dihydro-2H-pyrazino[1,2-a]indol-1-one]	2.31 µM	264 °C
C[C@@H]1CNC(=O)c2cc3cc(F)cc(-c4ccccc4)c3n21 [Example 4, (R)-8-Fluoro-4-methyl-6-phenyl-3,4-dihydro-2H-pyrazino[1,2-a]indol-1-one]	0.37 µM	243.5 °C
COc1ccc(-c2cc(F)cc3cc4n(c23)[C@H](C)CNC4=O)cc1 [Example 5, (R)-8-Fluoro-6-(4-methoxy-phenyl)-4-methyl-3,4-dihydro-2H-pyrazino[1,2-a]indol-1-one]	0.034 µM	228.5 °C
C[C@@H]1CNC(=O)c2cc3cc(F)cc(-c4ccc(F)cc4)c3n21 [Example 6, (R)-8-Fluoro-6-(4-fluoro-phenyl)-4-methyl-3,4-dihydro-2H-pyrazino[1,2-a]indol-1-one]	0.22 µM	276 °C
C[C@@H]1CNC(=O)c2cc3cc(F)cc(-c4ccncc4)c3n21 [Example 7, (R)-8-Fluoro-4-methyl-6-pyridin-4-yl-3,4-dihydro-2H-pyrazino[1,2-a]indol-1-one]	0.4 µM	294.5 °C
Cc1ccc(-c2cc(F)cc3cc4n(c23)[C@H](C)CNC4=O)cc1 [Example 8, (R)-8-Fluoro-4-methyl-6-p-tolyl-3,4-dihydro-2H-pyrazino[1,2-a]indol-1-one]	0.048 µM	294.5 °C
C[C@@H]1CNC(=O)c2cc3cc(F)cc(-c4cc(F)cc(F)c4)c3n21 [Example 9, (R)-6-(3,5-Difluoro-phenyl)-8-fluoro-4-methyl-3,4-dihydro-2H-pyrazino[1,2-a]indol-1-one]	0.37 µM	229.5 °C
C[C@@H]1CNC(=O)c2cc3cc(F)cc(-c4ccc(F)c(F)c4)c3n21 [Example 10, (R)-6-(3,4-Difluoro-phenyl)-8-fluoro-4-methyl-3,4-dihydro-2H-pyrazino[1,2-a]indol-1-one]	0.22 µM	267 °C
C[C@@H]1CNC(=O)c2cc3cc(F)cc(-c4ccc(Cl)cc4)c3n21 [Example 11, (R)-6-(4-Chloro-phenyl)-8-fluoro-4-methyl-3,4-dihydro-2H-pyrazino[1,2-a]indol-1-one]	0.1 µM	282.5 °C
O=C1NCCn2c1cc1cc(F)cc(-c3ccccc3)c12 [Example 12, 8-Fluoro-6-phenyl-3,4-dihydro-2H-pyrazino[1,2-a]indol-1-one]	0.037 µM	236.5 °C
C[C@@H]1CNC(=O)c2cc3cc(F)cc(-c4ccc(C(F)(F)F)cc4)c3n21 [Example 13, (R)-8-Fluoro-4-methyl-6-(4-trifluoromethyl-phenyl)-3,4-dihydro-2H-pyrazino[1,2-a]indol-1-one]	0.16 µM	307 °C
C[C@@H]1CNC(=O)c2cc3cc(F)cc(-c4cccc(F)c4)c3n21 [Example 14, (R)-8-Fluoro-6-(3-fluoro-phenyl)-4-methyl-3,4-dihydro-2H-pyrazino[1,2-a]indol-1-one]	0.34 µM	232 °C

SMILES	EC (150% of control) [1]	melting point
O=C1NCCCn2c1cc1cc(F)cc(-c3ccccc3)c12 [Example 15, 9-Fluoro-7-phenyl-2,3,4,5-tetrahydro-[1,4]diazepino[1,2-a]indol-1-one]	0.084 µM	277 °C
COc1ccc(-c2cc(F)cc3cc4n(c23)CCCNC4=O)cc1 [Example 16, 9-Fluoro-7-(4-methoxy-phenyl)-2,3,4,5-tetrahydro-[1,4]diazepino[1,2-a]indol-1-one]	0.009 µM	225.5 °C
O=C1NCCCn2c1cc1cc(F)cc(-c3ccc(F)cc3)c12 [Example 17, 9-Fluoro-7-(4-fluoro-phenyl)-2,3,4,5-tetrahydro-[1,4]diazepino[1,2-a]indol-1-one]	0.05 µM	239.5 °C
O=C1NCCn2c1cc1cc(F)cc(-c3ccc(F)cc3)c12 [Example 18, 8-Fluoro-6-(4-fluoro-phenyl)-3,4-dihydro-2H-pyrazino[1,2-a]indol-1-one]	0.026 µM	304 °C
Cc1c2n(c3c(-c4ccc(Cl)nc4)cc(F)cc13)CCNC2=O [Example 144, 6-(6-Chloro-pyridin-3-yl)-8-fluoro-10-methyl-3,4-dihydro-2H-pyrazino[1,2-a]indol-1-one]	0.081 µM	–
N#Cc1cc(-c2ccc(Cl)c(C(F)(F)F)c2)c2c(c1)cc1n2CCCNC1=O [Example 254, 7-[4-Chloro-3-(trifluoromethyl)phenyl]-1-oxo-2,3,4,5-tetrahydro-[1,4]diazepino[1,2-a]indole-9-carbonitrile]	–	224.5 °C
N#Cc1cc(-c2cccnc2)c2c(c1)cc1n2CCCNC1=O [Example 263, 1-Oxo-7-pyridin-3-yl-2,3,4,5-tetrahydro-[1,4]diazepino[1,2-a]indole-9-carbonitrile]	–	252 °C
N#Cc1cc(-c2ccc(N)nc2)c2c(c1)cc1n2CCCNC1=O [Example 264, 7-(6-Aminopyridin-3-yl)-1-oxo-2,3,4,5-tetrahydro-[1,4]diazepino[1,2-a]indole-9-carbonitrile]	–	314.5 °C
N#Cc1cc(-c2ccc(Cl)nc2)c2c(c1)cc1n2CCCNC1=O [Example 265, 7-(6-Chloropyridin-3-yl)-1-oxo-2,3,4,5-tetrahydro-[1,4]diazepino[1,2-a]indole-9-carbonitrile]	–	204 °C
Cc1c2n(c3c(-c4cccc(Cl)c4)cc(C#N)cc13)CCNC2=O [Example 268, 6-(3-Chlorophenyl)-10-methyl-1-oxo-3,4-dihydro-2H-pyrazino[1,2-a]indole-8-carbonitrile]	–	254 °C
CC(C)(C)c1ccc(-c2cc(C#N)cc3cc4n(c23)CCCNC4=O)cc1 [Example 270, 7-(4-tert-Butylphenyl)-1-oxo-2,3,4,5-tetrahydro-[1,4]diazepino[1,2-a]indole-9-carbonitrile]	–	215 °C
N#Cc1cc(-c2ccc(F)nc2)c2c(c1)cc1n2CCCNC1=O [Example 272, 7-(6-Fluoropyridin-3-yl)-1-oxo-2,3,4,5-tetrahydro-[1,4]diazepino[1,2-a]indole-9-carbonitrile]	–	264.5 °C
N#Cc1cc(-c2cncnc2)c2c(c1)cc1n2CCCNC1=O [Example 273, 1-Oxo-7-pyrimidin-5-yl-2,3,4,5-tetrahydro-[1,4]diazepino[1,2-a]indole-9-carbonitrile]	–	277 °C
N#Cc1cc(-c2cc(Cl)cc(Cl)c2)c2c(c1)cc1n2CCCNC1=O [Example 286, 7-(3,5-Dichlorophenyl)-1-oxo-2,3,4,5-tetrahydro-[1,4]diazepino[1,2-a]indole-9-carbonitrile]	–	244 °C
Cc1c2n(c3c(-c4cc(Cl)cc(Cl)c4)cc(C#N)cc13)CCNC2=O [Example 293, 6-(3,5-Dichlorophenyl)-10-methyl-1-oxo-3,4-dihydro-2H-pyrazino[1,2-a]indole-8-carbonitrile]	–	347 °C
Cc1c2n(c3c(-c4cncnc4)cc(C#N)cc13)CCCNC2=O [Example 299, 11-Methyl-1-oxo-7-pyrimidin-5-yl-2,3,4,5-tetrahydro-[1,4]diazepino[1,2-a]indole-9-carbonitrile]	–	304 °C
